Measured values from PMC4457528, “Identification of Novel Small Molecule Inhibitors of Oncogenic RET Kinase” (PLoS ONE, 2015).
Where two headings read alike, the source gives them in different places.

Experiments:
Experiment in all cases: KinomeScan kinase panel, single concentration 10 µM
Assay type in all cases: binding
KinomeScan kinase panel [1] = biological target: T1, KinomeScan kinase panel (Homo sapiens, UniProt P00519, F317L); conditions: 10 µM, read-out: score (%)
T1 construct: purchased DiscoveRx (KinomeScan)

KinomeScan kinase panel [2] = biological target: T2, KinomeScan kinase panel (Homo sapiens, UniProt P00519, H396P); conditions: 10 µM, read-out: score (%)
T2 construct: purchased DiscoveRx (KinomeScan)

KinomeScan kinase panel [3] = biological target: T3, KinomeScan kinase panel (Homo sapiens, UniProt P23458)
T3 construct: purchased DiscoveRx (KinomeScan)

KinomeScan kinase panel [4] = biological target: T4, KinomeScan kinase panel (Homo sapiens, UniProt P49759); conditions: CLK1, 10 µM; read-out: score (%)
T4 construct: purchased DiscoveRx (KinomeScan)

KinomeScan kinase panel [5] = biological target: T5, KinomeScan kinase panel (Homo sapiens, UniProt P49761); conditions: CLK3, 10 µM; read-out: score (%)
T5 construct: purchased DiscoveRx (KinomeScan)

KinomeScan kinase panel [6] = biological target: T6, KinomeScan kinase panel (Homo sapiens, UniProt Q06187); conditions: BTK, 10 µM
T6 construct: purchased DiscoveRx (KinomeScan)

KinomeScan kinase panel [7] = biological target: T7, KinomeScan kinase panel (Homo sapiens, UniProt Q13164); conditions: ERK5, 10 µM; read-out: score (%)
T7 construct: purchased DiscoveRx (KinomeScan)

KinomeScan kinase panel [8] = biological target: T8, KinomeScan kinase panel (Homo sapiens, UniProt Q16512); conditions: PKN1, 10 µM; read-out: score (%)
T8 construct: purchased DiscoveRx (KinomeScan)

KinomeScan kinase panel [9] = biological target: T9, KinomeScan kinase panel (Homo sapiens, UniProt Q16659); conditions: ERK3, 10 µM; read-out: score (%)
T9 construct: purchased DiscoveRx (KinomeScan)

KinomeScan kinase panel [10] = biological target: T10, KinomeScan kinase panel (Homo sapiens, UniProt Q7L7X3); conditions: read-out: score (%)
T10 construct: purchased DiscoveRx (KinomeScan)
T10 sequence (Q7L7X3 1-1001): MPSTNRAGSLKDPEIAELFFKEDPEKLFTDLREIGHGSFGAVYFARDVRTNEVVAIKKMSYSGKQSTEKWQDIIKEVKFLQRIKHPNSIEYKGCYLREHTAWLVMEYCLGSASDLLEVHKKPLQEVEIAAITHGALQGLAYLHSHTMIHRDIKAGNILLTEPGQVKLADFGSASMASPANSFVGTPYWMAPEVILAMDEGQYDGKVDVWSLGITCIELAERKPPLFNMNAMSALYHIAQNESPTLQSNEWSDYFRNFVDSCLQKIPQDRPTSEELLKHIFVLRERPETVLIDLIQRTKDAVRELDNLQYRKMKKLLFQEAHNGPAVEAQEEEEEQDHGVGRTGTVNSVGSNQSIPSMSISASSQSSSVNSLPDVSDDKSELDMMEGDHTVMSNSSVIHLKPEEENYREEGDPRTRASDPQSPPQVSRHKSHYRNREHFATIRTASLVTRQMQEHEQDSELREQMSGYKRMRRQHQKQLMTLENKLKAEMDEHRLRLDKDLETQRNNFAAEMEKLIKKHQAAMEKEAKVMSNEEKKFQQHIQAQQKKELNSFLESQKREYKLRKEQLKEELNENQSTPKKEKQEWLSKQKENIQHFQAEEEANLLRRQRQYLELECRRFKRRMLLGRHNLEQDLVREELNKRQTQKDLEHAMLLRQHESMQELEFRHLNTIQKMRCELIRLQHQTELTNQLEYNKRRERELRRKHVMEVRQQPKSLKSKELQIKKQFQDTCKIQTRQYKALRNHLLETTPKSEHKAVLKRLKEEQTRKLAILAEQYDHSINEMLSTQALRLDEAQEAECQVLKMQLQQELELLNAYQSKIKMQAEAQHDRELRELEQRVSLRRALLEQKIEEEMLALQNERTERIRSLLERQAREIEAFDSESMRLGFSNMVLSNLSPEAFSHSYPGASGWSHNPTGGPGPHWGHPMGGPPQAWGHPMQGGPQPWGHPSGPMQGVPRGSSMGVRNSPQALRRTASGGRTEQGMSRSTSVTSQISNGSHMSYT

KinomeScan kinase panel [11] = biological target: T11, KinomeScan kinase panel (Homo sapiens, UniProt Q96Q40); conditions: PFTAIRE2, 10 µM; read-out: score (%)
T11 construct: purchased DiscoveRx (KinomeScan)

KinomeScan kinase panel [12] = biological target: T12, KinomeScan kinase panel (Homo sapiens, UniProt Q9HCP0); conditions: CSNK1G1, 10 µM
T12 construct: purchased DiscoveRx (KinomeScan)

KinomeScan kinase panel [13] = biological target: T13, KinomeScan kinase panel (Homo sapiens, UniProt Q9UK32); conditions: 10 µM
T13 construct: purchased DiscoveRx (KinomeScan)

KinomeScan kinase panel [14] = biological target: T14, KinomeScan kinase panel (Homo sapiens, UniProt Q9UKE5); conditions: 10 µM, read-out: score (%)
T14 construct: purchased DiscoveRx (KinomeScan)

[15] = JAK1(JH1domain-catalytic), 10 µM

T5 sequence (P49761 whole entry): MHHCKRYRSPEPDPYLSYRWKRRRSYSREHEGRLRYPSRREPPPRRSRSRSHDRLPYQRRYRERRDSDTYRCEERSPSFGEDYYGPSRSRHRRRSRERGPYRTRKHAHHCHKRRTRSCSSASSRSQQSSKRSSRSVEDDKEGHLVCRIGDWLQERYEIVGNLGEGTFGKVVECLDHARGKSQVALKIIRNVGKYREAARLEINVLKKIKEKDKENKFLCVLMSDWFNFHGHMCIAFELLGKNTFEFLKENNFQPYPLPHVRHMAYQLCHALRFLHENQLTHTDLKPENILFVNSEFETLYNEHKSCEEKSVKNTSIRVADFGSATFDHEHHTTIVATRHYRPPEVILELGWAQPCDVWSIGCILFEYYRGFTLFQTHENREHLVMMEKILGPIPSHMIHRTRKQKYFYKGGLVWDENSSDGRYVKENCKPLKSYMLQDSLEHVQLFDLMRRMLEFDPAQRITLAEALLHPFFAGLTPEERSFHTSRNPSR
T4 sequence (P49759 whole entry): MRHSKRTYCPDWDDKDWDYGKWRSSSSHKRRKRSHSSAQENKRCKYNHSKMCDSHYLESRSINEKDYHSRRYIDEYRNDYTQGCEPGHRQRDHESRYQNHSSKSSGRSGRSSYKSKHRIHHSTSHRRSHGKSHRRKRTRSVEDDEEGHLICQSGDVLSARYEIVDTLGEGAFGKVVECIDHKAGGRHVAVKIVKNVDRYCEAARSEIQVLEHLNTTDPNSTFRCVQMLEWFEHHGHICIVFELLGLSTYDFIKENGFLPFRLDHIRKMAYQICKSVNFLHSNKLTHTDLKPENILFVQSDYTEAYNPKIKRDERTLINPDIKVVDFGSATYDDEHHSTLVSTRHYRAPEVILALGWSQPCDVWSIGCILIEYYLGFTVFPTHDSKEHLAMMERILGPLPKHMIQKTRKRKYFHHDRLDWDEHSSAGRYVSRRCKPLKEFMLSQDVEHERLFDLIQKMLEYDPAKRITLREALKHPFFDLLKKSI
T9 sequence (Q16659 whole entry): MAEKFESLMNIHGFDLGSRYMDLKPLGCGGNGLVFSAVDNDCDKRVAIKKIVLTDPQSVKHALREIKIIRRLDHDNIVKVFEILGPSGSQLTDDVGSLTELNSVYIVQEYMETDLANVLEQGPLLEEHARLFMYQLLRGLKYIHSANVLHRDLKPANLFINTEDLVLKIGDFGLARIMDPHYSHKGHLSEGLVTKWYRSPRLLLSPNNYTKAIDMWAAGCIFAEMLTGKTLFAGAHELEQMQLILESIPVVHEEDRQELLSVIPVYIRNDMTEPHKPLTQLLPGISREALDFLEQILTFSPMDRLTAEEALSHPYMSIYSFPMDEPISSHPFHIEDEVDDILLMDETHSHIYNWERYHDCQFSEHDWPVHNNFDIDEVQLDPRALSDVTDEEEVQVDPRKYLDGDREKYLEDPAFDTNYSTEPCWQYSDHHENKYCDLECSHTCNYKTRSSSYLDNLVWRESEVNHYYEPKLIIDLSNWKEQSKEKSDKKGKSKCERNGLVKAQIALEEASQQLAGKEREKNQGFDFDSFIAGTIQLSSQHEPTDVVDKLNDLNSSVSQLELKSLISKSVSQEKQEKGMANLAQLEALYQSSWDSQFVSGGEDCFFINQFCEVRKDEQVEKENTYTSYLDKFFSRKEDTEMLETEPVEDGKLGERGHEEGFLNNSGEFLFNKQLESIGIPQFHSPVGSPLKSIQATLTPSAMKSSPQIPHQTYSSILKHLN
T11 sequence (Q96Q40 whole entry): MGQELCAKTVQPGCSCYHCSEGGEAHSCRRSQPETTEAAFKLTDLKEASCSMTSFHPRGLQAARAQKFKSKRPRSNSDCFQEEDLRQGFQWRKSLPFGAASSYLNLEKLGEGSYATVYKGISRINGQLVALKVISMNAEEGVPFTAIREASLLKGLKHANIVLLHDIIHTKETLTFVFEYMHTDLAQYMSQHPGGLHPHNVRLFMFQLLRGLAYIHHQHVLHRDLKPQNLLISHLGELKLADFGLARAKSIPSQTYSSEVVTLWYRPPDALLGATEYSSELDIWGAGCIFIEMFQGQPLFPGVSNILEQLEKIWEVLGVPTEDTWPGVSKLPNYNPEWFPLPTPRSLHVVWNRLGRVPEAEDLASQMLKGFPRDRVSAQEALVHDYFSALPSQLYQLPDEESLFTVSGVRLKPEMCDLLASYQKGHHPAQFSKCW
T6 sequence (Q06187 whole entry): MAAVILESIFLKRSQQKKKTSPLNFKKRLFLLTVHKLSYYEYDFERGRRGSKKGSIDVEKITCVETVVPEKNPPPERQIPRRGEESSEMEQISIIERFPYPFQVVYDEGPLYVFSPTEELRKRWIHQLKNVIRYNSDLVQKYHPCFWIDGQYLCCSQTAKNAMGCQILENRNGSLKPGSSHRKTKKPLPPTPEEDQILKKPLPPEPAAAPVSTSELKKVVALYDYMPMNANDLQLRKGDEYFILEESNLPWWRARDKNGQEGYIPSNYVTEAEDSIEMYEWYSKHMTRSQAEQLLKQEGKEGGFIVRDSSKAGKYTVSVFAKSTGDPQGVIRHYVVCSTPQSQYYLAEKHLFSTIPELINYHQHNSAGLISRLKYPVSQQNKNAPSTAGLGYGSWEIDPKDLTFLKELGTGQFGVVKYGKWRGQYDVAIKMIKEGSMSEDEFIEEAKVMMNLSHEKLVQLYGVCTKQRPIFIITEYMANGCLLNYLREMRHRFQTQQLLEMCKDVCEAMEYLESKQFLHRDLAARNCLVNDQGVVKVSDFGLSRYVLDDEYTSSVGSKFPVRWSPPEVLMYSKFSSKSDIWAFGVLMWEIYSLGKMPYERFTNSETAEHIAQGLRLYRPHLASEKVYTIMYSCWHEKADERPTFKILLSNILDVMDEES
T3 sequence (P23458 whole entry): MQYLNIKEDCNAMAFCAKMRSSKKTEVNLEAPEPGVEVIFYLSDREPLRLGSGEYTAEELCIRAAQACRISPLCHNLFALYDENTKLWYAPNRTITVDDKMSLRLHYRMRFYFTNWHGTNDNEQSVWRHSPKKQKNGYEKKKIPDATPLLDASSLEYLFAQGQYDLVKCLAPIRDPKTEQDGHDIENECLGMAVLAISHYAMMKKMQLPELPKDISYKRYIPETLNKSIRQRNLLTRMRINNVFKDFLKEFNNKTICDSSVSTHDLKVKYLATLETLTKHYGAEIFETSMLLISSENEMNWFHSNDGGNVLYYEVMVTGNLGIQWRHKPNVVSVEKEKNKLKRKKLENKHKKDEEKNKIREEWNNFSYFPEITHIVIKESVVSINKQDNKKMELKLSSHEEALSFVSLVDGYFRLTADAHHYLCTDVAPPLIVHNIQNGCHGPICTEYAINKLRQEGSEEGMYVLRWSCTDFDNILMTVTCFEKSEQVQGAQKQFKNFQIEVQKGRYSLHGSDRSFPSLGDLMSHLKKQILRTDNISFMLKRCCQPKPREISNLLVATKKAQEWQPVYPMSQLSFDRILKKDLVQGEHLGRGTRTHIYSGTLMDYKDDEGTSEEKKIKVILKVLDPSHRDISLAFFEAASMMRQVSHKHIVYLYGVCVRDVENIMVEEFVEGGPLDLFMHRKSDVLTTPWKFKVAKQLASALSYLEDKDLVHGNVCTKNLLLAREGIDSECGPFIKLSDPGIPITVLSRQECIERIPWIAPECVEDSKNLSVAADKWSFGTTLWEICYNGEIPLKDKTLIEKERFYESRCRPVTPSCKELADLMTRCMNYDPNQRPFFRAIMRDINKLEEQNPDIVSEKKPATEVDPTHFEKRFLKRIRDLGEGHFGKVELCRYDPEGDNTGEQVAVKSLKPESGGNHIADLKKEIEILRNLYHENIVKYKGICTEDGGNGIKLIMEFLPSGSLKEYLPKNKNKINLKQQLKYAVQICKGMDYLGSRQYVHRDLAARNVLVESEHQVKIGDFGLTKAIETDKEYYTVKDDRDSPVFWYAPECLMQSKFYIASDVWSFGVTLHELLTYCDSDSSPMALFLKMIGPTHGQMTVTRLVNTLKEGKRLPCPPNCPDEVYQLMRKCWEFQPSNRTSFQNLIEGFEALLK
T8 sequence (Q16512 whole entry): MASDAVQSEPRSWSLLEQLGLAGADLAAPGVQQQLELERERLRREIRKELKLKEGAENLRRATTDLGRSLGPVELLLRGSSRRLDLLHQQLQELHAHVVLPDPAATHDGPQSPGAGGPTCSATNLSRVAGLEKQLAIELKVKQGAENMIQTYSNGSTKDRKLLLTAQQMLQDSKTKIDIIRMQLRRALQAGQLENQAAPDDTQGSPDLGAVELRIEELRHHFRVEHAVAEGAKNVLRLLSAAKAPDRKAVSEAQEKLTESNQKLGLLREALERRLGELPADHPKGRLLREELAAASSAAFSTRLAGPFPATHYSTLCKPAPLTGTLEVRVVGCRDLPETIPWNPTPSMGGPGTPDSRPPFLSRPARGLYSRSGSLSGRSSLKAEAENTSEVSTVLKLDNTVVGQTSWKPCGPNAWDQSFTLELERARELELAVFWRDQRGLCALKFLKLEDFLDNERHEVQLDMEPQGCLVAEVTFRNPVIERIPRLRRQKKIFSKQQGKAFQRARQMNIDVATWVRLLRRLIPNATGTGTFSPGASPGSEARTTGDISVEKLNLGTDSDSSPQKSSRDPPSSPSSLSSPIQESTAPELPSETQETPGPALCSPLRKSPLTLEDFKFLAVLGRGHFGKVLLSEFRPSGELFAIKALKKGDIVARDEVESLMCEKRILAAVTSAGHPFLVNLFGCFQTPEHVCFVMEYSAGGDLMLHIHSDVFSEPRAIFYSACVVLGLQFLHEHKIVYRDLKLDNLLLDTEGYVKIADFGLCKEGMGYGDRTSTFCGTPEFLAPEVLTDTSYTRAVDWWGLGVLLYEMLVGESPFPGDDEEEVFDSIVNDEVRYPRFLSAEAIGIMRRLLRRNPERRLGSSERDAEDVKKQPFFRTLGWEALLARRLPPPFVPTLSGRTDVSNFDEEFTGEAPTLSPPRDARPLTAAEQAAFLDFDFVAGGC

Row | Structure (SMILES) | remaining binding at 10 µM (KinomeScan kinase panel [1]; ABL1(F317L)) [%] | remaining binding at 10 µM (KinomeScan kinase panel [2]; ABL1(H396P)) [%] | score (%) (KinomeScan kinase panel [3]; [15]) | remaining binding at 10 µM (KinomeScan kinase panel [4]) [%] | remaining binding at 10 µM (KinomeScan kinase panel [5]) [%] | score (%) (KinomeScan kinase panel [6]) | remaining binding at 10 µM (KinomeScan kinase panel [7]) [%] | remaining binding at 10 µM (KinomeScan kinase panel [8]) [%] | remaining binding at 10 µM (KinomeScan kinase panel [9]) [%] | remaining binding at 10 µM (KinomeScan kinase panel [10]; kinase TAOK1, 10 µM) [%] | remaining binding at 10 µM (KinomeScan kinase panel [11]) [%] | score (%) (KinomeScan kinase panel [12]) | remaining binding at 10 µM (KinomeScan kinase panel [14]; kinase TNIK) [%] | other results
1 | CCN1CCN(Cc2ccc(NC(=O)c3ccc(C)c(NC(=O)c4cncc(-c5cccs5)c4)c3)cc2C(F)(F)F)CC1 [ALW-II-41-27] | 0.2 | 0.5 | 14 | 1.1 | > 30 | 0.1 | > 30 | > 30 | > 30 | > 30 | > 30 | nb (Hits values higher than 30% were considered negative (no binding: nb)) | 11 | score (%) (KinomeScan kinase panel [3]): nb (Hits values higher than 30% were considered negative (no binding: nb)); score (%) (KinomeScan kinase panel [13]; kinase RPS6KA6(Kin.Dom.1-N-terminal)): nb (Hits values higher than 30% were considered negative (no binding: nb)); score (%) (KinomeScan kinase panel [13]; kinase RPS6KA6(Kin.Dom.2-C-terminal)): nb (Hits values higher than 30% were considered negative (no binding: nb))
2 | CCN1CCN(Cc2ccc(NC(=O)c3ccc(C)c(C#Cc4cccnc4)c3)cc2C(F)(F)F)CC1 [XMD15-44] | – | – | 6.2 | 3.9 | > 30 | 2 | > 30 | 85 | > 30 | 0.25 | 6.4 | nb (Hits values higher than 30% were considered negative (no binding: nb)) | 1.8 | remaining binding at 10 µM (KinomeScan kinase panel [1]; ABL1(F317L)-nonphosphorylated): 0%; remaining binding at 10 µM (KinomeScan kinase panel [1]; ABL1(F317L)-phosphorylated): 0.85%; remaining binding at 10 µM (KinomeScan kinase panel [2]; ABL1(H396P)-nonphosphorylated): 0%; remaining binding at 10 µM (KinomeScan kinase panel [2]; ABL1(H396P)-phosphorylated): 0%; score (%) (KinomeScan kinase panel [3]; JAK1(JH2domain-pseudokinase), 10 µM): nb (Hits values higher than 30% were considered negative (no binding: nb)); score (%) (KinomeScan kinase panel [13]; kinase RSK4(Kin.Dom.1-N-terminal)): 47%; score (%) (KinomeScan kinase panel [13]; kinase RSK4(Kin.Dom.2-C-terminal)): 6.8%
3 | CCN1CCN(Cc2ccc(NC(=O)c3ccc(C)c(/C=C/c4cnc5[nH]ccc5c4Cl)c3)cc2C(F)(F)F)CC1 [HG-6-63-01, (E)-3-(2-(4-chloro-1H-pyrrolo[2,3-b]pyridin-5-yl)vinyl)-N-(4-((4-ethylpiperazin-1-yl)methyl)-3-(trifluoromethyl)phenyl)-4-methylbenzamide] | 0.1 | 0.2 | – | 27 | > 30 | 3.8 | > 30 | > 30 | > 30 | – | > 30 | nb (Hits values higher than 30% were considered negative (no binding: nb)) | – | score (%) (KinomeScan kinase panel [3]; JAK1(Kin.Dom.1), 10 µM): nb (Hits values higher than 30% were considered negative (no binding: nb)); score (%) (KinomeScan kinase panel [3]; JAK1(Kin.Dom.2), 10 µM): 11%; remaining binding at 10 µM (KinomeScan kinase panel [10]; TAOK1, 10 µM): 6.5%; score (%) (KinomeScan kinase panel [13]; RPS6KA6(Kin.Dom.1)): nb (Hits values higher than 30% were considered negative (no binding: nb)); score (%) (KinomeScan kinase panel [13]; RPS6KA6(Kin.Dom.2)): nb (Hits values higher than 30% were considered negative (no binding: nb)); remaining binding at 10 µM (KinomeScan kinase panel [14]; TNIK): 13%
